Where a name gives a salt, the structure may show the parent alone. Read-outs that look alike come from different tables or passages of the source.
Assays:
[1] = target: Recombinant human PKC-delta (His-tagged 345-676) (Homo sapiens (Human), UniProt Q05655); test: PKC-delta inhibition assay (HTRF KinEASE kit), PKC-theta/PKC-delta selectivity; format: biochemical; details: ratio; for PKC-theta/PKC-delta selectivity: PKC-theta over PKC-delta, HTRF assays; for PKC-theta/PKC-delta selectivity (binned): binned A to G
Recombinant human PKC-delta (His-tagged 345-676), sequence (Q05655 345-676): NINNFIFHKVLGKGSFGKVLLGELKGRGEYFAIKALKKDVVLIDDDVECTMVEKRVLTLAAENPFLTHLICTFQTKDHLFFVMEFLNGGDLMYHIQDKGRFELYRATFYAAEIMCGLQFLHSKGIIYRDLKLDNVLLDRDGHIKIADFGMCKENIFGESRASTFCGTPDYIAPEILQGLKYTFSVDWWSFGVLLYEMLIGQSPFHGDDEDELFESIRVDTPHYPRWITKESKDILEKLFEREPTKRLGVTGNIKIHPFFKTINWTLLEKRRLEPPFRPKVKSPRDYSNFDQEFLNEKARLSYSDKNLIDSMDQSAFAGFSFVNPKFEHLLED
Outline: (§1)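 Ten semi-log compound doses were fitted by 4-parameter logistic to HTRF acceptor/donor ratios for IC50. Reactions at 25° C used 6.5 μM ATP and 525 nM STK substrate for 30 min (PKC-theta) or 5.7 μM ATP and 243 nM substrate for 20 min (PKC-delta), after 30 min on-ice enzyme–compound preincubation at 10 ng/ml enzyme.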

[2] = tested on: IL-2 secretion by human effector memory T cells (TEM); test: Effector memory T cells IL-2 release assay; format: cell-based; details: T-cell, 24 h
Outline: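 IC50 values come from a 4-parameter fit of HTRF-measured IL-2 against 10 semi-log doses, relative to maximal IL-2 in each experiment. Donor-derived CD4+ TEM cells were bead-stimulated (anti-CD3/CD28) with compound for 24 h at 37° C; cytotoxicity was excluded by viability dye staining.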

[3] = target: Recombinant human PKC-theta (His-tagged 362-706) (Homo sapiens (Human), UniProt Q04759); test: PKC-theta inhibition assay (HTRF KinEASE kit); format: biochemical; details: ATP 6.5 μM; for IC50: binned A to H, read-out: PKC-theta HTRF pIC50 (binned) (converted)
Recombinant human PKC-theta (His-tagged 362-706), sequence (Q04759 362-706): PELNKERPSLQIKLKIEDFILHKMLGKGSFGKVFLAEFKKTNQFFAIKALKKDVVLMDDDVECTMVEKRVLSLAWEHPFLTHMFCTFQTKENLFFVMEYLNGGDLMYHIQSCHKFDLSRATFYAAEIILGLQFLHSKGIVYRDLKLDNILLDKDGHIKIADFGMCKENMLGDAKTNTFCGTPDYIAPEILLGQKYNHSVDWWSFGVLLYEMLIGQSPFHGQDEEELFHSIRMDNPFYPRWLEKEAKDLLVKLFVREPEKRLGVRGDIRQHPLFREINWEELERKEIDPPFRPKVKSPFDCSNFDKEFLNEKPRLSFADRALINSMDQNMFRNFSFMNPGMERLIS
Outline: as §1

[4] = human CD4+ TEM cells, CD3/CD28 bead stimulation, binned A to G, read-out: PKC-theta IL2 pIC50 (binned) (converted)
[5] = human CD4+ TEM cells, CD3/CD28 bead stimulation, read-out: PKC-theta IL2 pIC50 (converted)

Row | SMILES | PKC-theta/PKC-delta selectivity [1] | PKC-theta/PKC-delta selectivity (binned) [1] | IC50 [2, 4] [nM] | IC50 [2, 5] [nM] | PKC-theta HTRF pIC50 [3] | IC50 [3] [nM] | IC50 ([2]; Homo sapiens, read-out: PKC-theta IL2 pIC50 (binned) (converted)) [nM] | IC50 ([2]; Homo sapiens, read-out: PKC-theta IL2 pIC50 (converted)) [nM]
1 | CC1(O)C(=O)Nc2nccc(-c3cn(C4(CC#N)CCC4)c4ccccc34)c21 (stereo not drawn) [Example 24] | 9 | E (E means a ratio of between 5 and 10) | 31.6 to 100 | 63.1 | 8.4 | 3.16 to 10 |  | 
2 | CC1(O)C(=O)Nc2nccc(-c3nn(C4(CC#N)CCC4)c4ccccc34)c21 (stereo not drawn) [Example 25, 2-[1-[3-(3-hydroxy-3-methyl-2-oxo-1H-pyrrolo[2,3-b]pyridin-4-yl)indazol-1-yl]cyclobutyl]acetonitrile] | 6 | E (E means a ratio of between 5 and 10) | 10 to 31.6 | 20 | 9.3 | ≤ 1 |  | 
3 | CC1(O)C(=O)Nc2nccc(-c3nn(C4CCNCC4)c4ccccc34)c21 (stereo not drawn) [Example 26] | 11 | D (D means a ratio of between 10 and 20) | 31.6 to 100 | 79.4 | 8.5 | 3.16 to 10 |  | 
4 | CC1(C)C(=O)Nc2nccc(-c3nn(CC4CCNCC4)c4ccccc34)c21 [Example 30] | 14 | D (D means a ratio of between 10 and 20) | 31.6 to 100 | 50.1 | 8.9 | 1 to 3.16 |  | 
5 | CC1(C)C(=O)Nc2nccc(-c3nn(C4CCNCC4)c4c(F)cccc34)c21 [Example 32] | 13 | D (D means a ratio of between 10 and 20) | 100 to 316 | 100 | 8.1 | 3.16 to 10 |  | 
6 | CC1(O)C(=O)Nc2nccc(-c3nn([C@@H]4CCNC[C@@H]4F)c4ccccc34)c21 (stereo partly drawn) [Example 34] | 12 | D (D means a ratio of between 10 and 20) | 31.6 to 100 | 39.8 | 8.8 | 1 to 3.16 |  | 
7 | CC1(O)C(=O)Nc2nccc(-c3nn([C@H]4CCNC[C@@H]4F)c4ccccc34)c21 (stereo partly drawn) [Example 35] | 11 | D (D means a ratio of between 10 and 20) | 31.6 to 100 | 100 | 8.5 | 3.16 to 10 |  | 
8 | CC1(C)C(=O)Nc2nccc(-c3nn([C@@H]4CCNC[C@@H]4F)c4ccccc34)c21 [Example 37] | 19 | D (D means a ratio of between 10 and 20) | 10 to 31.6 | 25.1 | 8.6 | 1 to 3.16 |  | 
9 | CC1(C)C(=O)Nc2nccc(-c3nn(CC4(F)CCNCC4)c4ccccc34)c21 [Example 38] | 16 | D (D means a ratio of between 10 and 20) | 10 to 31.6 | 20 | 8.9 | 1 to 3.16 |  | 
10 | CC1(O)C(=O)Nc2nccc(-c3nn([C@@H]4CC[C@@H](N)[C@H](F)C4)c4ccccc34)c21 (stereo partly drawn) [Example 39] | 10 | E (E means a ratio of between 5 and 10) | 3.16 to 10 | 10 | 9.7 | ≤ 1 |  | 
11 | CC1(C)C(=O)Nc2nccc(-c3nn([C@H]4CC[C@H](N)CC4)c4ccccc34)c21 [Example 41] | 14 | D (D means a ratio of between 10 and 20) | 10 to 31.6 | 15.8 | 9.4 | ≤ 1 |  | 
12 | CC1(C)C(=O)Nc2nccc(-c3nn(CC4(F)CCCNC4)c4ccccc34)c21 (stereo not drawn) [Example 44] | 14 | D (D means a ratio of between 10 and 20) | 100 to 316 | 251 | 7.5 | 31.6 to 100 |  | 
13 | CC1(C)C(=O)Nc2nccc(-c3nn(C4(CC#N)COC4)c4ccccc34)c21 [Example 45] | 15 | D (D means a ratio of between 10 and 20) | > 1000 | 1000 | 7.4 | 31.6 to 100 |  | 
14 | CC1(C)C(=O)Nc2nccc(-c3nn(C4(CC#N)CNC4)c4ccccc34)c21 [Example 46] | 3 | F (F means a ratio of between 1 and 5) | 100 to 316 | 158 | 8.2 | 3.16 to 10 |  | 
15 | CCC1(O)C(=O)Nc2nccc(-c3nn(C4(CC#N)CCC4)c4ccccc34)c21 (stereo not drawn) [Example 51] | 11 | D (D means a ratio of between 10 and 20) | 10 to 31.6 | 15.8 | 9.3 | ≤ 1 |  | 
16 | CCC1(C)C(=O)Nc2nccc(-c3nn([C@@H]4CCNC[C@@H]4F)c4ccccc34)c21 (stereo partly drawn) [Example 52] | 8 | E (E means a ratio of between 5 and 10) | 31.6 to 100 | 39.8 | 8.4 | 3.16 to 10 |  | 
17 | CCC1(C)C(=O)Nc2nccc(-c3nn([C@H]4CCNC4)c4ccccc34)c21 (stereo partly drawn) [Example 53] | 13 | D (D means a ratio of between 10 and 20) | 31.6 to 100 | 100 | 8.3 | 3.16 to 10 |  | 
18 | CC1(Cn2nc(-c3ccnc4c3C(C)(C)C(=O)N4)c3ccccc32)COCCN1 (stereo not drawn) [Example 54, 3,3-dimethyl-4-[1-[(3-methylmorpholin-3-yl)methyl]indazol-3-yl]-1H-pyrrolo[2,3-b]pyridin-2-one] | 22 | C (C means a ratio of between 20 and 30) | 31.6 to 100 | 79.4 | 8.6 | 1 to 3.16 |  | 
19 | O=C1Nc2nccc(-c3nn(C4(CO)CCNC4)c4cc(F)ccc34)c2C12CCCC2 (stereo not drawn) [Example 55, 4-[6-fluoro-1-[3-(hydroxymethyl)pyrrolidin-3-yl]indazol-3-yl]spiro[1H-pyrrolo[2,3-b]pyridine-3,1′-cyclopentane]-2-one dihydrochloride] | 4 | F (F means a ratio of between 1 and 5) |  |  | 8.2 | 3.16 to 10 | 100 to 316 | 158
20 | CCC1(O)C(=O)Nc2nccc(-c3nn([C@@H]4CCNC[C@@H]4F)c4ccccc34)c21 (stereo partly drawn) [Example 56] | 15 | D (D means a ratio of between 10 and 20) | 31.6 to 100 | 50.1 | 8.7 | 1 to 3.16 |  | 
21 | COC1(C)C(=O)Nc2nccc(-c3nn(C4(CC#N)CCC4)c4ccccc34)c21 (stereo not drawn) [Example 57] | 14 | D (D means a ratio of between 10 and 20) | 31.6 to 100 | 50.1 | 8.9 | 1 to 3.16 |  | 

Source: patent US20240239794A1, “PKC-Theta Modulators” (Exscientia AI Limited, priority 2021, published 2024)
